Here are results for 3 molecules from patent US6552089B1, “Method of treating or preventing alopecia” (priority 1992, dated 2003).

The subject of series [1] is arabinoside-C induced alopecia. Kind of series: topical application in glycerin to back of arabinoside-C injected rats. Set-up: key to Grade of Alopecia: 0 = no alopecia; 1 = less than 20% alopecia; 2 = less than 50% alopecia; 3 = more than 50% alopecia; 4 = total alopecia. It counts as in vivo. As to conditions: for Grade of Alopecia: arabinoside-C 25 mg/kg 2 h after each treatment. Here is the method:
A stock composition of 1 mg. of ammonium trichloro (O,O′-dioxoethylene) tellurate in 1 ml. of glycerin was prepared. The stock composition was diluted with glycerin to give the following concentrations per ml. so that the stated dose could be applied topically by application of 1 ml. of solution. The solution was applied to the entire back surface of rats once daily for a period of 7 days. Two hours after each treatment the rats were injected with 25 mg/kg of arabinoside-C once daily. Control rats were treated with a glycerin and injected with arabinoside-C.

The subject of series [2] is arabinoside-C induced alopecia. Description: arabinoside-C induced alopecia in 8 day old rats, tellurate given i.p. (method of Hussein et al.). It counts as in vivo, Sprauge Dawley rats. As to conditions: for No. of subjects with alopecia grade 0 (no detectable alopecia) / No. of subjects with alopecia grade 1+ (mild, hair loss <50%) / No. of subjects with alopecia grade 2+ (moderately severe, hair loss >50%) / No. of subjects with alopecia grade 3+ (total or virtually total, hair loss >79%) / effect on alopecia of a tellurate regimen: rats; for No. of subjects with alopecia grade 0 (no detectable alopecia) / No. of subjects with alopecia grade 1+ (mild, hair loss <50%) / No. of subjects with alopecia grade 2+ (moderately severe, hair loss >50%) / No. of subjects with alopecia grade 3+ (total or virtually total, hair loss >79%): day 9. Here is the method: 28, 1990, pp. 1564-1566. […] The cycle of treatment lasted 7 days. […] A second experiment was carried out using the same procedure which is outlined above.

Series [3] has as its system alopecia which is induced by cyclophosphamide. To be noted: rats.
The test system of series [4] is alopecia under carboplatinum/etoposide chemotherapy. Description: phase II chemotherapy trial, alopecia score. To be noted: Group II: tellurate 3 mg/m^2 three times a week plus carboplatinum/etoposide chemotherapy; 12 weeks after chemotherapy. Type of series: in vivo, patients. Here is the method: A phase II chemotherapy trial was carried out in patients having unresectable and metastatic non-small cell lung tumors. The chemotherapy was based on carboplatinum 300.0 mg/m^2/IV daily and etoposide 200.0 mg/m^2 on day 3, 5 and 7 for a total of 12 weeks of chemotherapy which was given to group I. In addition to the same chemotherapy, ammonium trichloro (O,O′-dioxoethylene)tellurate was given to Group II at a dose of 3 mg/m^2 three times a week starting two weeks before the chemotherapy and continued for 12 weeks after the chemotherapy. The alopecia of both groups was observed 12 weeks after the chemotherapy and was as follows: […]

Where [5] appears, read: arabinoside-C 25 mg/kg daily ×7 days alone, first experiment.
[6] abbreviates: arabinoside-C 50 mg/kg i.p. ×7 days alone, first experiment.
Setting [7] is: tellurate 0.5 mg/Kg IP daily ×7 days with cyclophosphamide 20 mg/kg i.p. ×7 days, listed as ammonium trichloro (0,0′-dioxoethylene) tellurate.
The mark [8] stands for this setting: tellurate 0.5 mg/Kg IP daily ×7 days with arabinoside-C 25 mg/kg i.p., first experiment.
The mark [9] stands for this setting: tellurate 0.5 mg/Kg IP daily ×7 days with arabinoside-C 50 mg/kg i.p., first experiment.
Where [10] appears, read: tellurate 0.5 mg/Kg IP every other day ×7 days with arabinoside-C 25 mg/kg i.p., first experiment.
Where [11] appears, read: tellurate 0.5 mg/Kg IP every other day ×7 days with arabinoside-C 50 mg/kg i.p., first experiment.
Where [12] appears, read: tellurate 0.5 mg/Kg IP every other day ×7 days with arabinoside-C 50 mg/kg i.p., second experiment.
The mark [13] stands for this setting: cyclophosphamide 20 mg/kg i.p. ×7 days alone.

Values joined by “and” are separate entries in the source; they are usually repeats but may differ in a detail not shown here. Equal entries are not always repeated. Where two headings read alike, the source gives them in different places.

`Nc1ccn([C@@H]2O[C@H](CO)[C@@H](O)[C@@H]2O)c(=O)n1` [arabinoside-C, reference compound] displayed an alopecia in series [1] (all control animals: glycerin topical, arabinoside-C 25 mg/kg once daily) of 100%. The “No. of subjects with alopecia grade 0 (no detectable alopecia)” value (shortened to “No. of subjects … (no detectable alopecia)”) in series [2] (setting [5]) and in series [2] (setting [6]) was 0 throughout. The “No. of subjects with alopecia grade 1+ (mild, hair loss <50%)” value (shortened to “No. of subjects … (mild, hair loss <50%)”) in series [2] (setting [5]) and in series [2] (setting [6]) was 0 each time. In addition, the “No. of subjects with alopecia grade 2+ (moderately severe, hair loss >50%)” value in series [2] (setting [5]) and in series [2] (setting [6]) was 0 each time. The “No. of subjects with alopecia grade 3+ (total or virtually total, hair loss >79%)” value in series [2] (setting [5]) amounted to 3; in series [2] (arabinoside-C 25 mg/kg i.p. ×7 days alone, second experiment) it was 8; in series [2] (setting [6]), 4; in series [2] (arabinoside-C 50 mg/kg i.p. ×7 days alone, second experiment), 8. In series [2] (arabinoside-C treated subjects), the “histological examination of the skin” value is “almost complete loss of hair follicles”.

For the molecule `Cl[TeH]1(Cl)(Cl)OCCO1.N` [ammonium-trichloro (O,O′-dioxoethylene) tellurate], the “protection against cyclophosphamide induced alopecia” value in series [3] (0.5 mg/kg/i.p. in conjunction with cyclophosphamide) was “mild protection”. Besides, the “No. of subjects … (mild, hair loss <50%)” value in series [3] (tellurate 0.5 mg/Kg IP daily ×7 days with cyclophosphamide 20 mg/kg i.p. ×7 days) was found to be 4; in series [3] (setting [7]) it was 2; in series [2] (setting [8]) it was 4; in series [2] (setting [9]) it was 3; in series [2] (setting [10]) it was 4; in series [2] (setting [11]) it was 1. The “No. of subjects … (mild, hair loss <50%)” value in series [2] (setting [12]) amounted to 1. The “No. of subjects … (no detectable alopecia)” value in series [3] (setting [7]) is recorded as 2; in series [2] (setting [8]), 0; in series [2] (tellurate 0.5 mg/Kg IP daily ×7 days with arabinoside-C 25 mg/kg i.p., second experiment) it was 6; in series [2] (setting [9]), 0; in series [2] (tellurate 0.5 mg/Kg IP daily ×7 days with arabinoside-C 50 mg/kg i.p., second experiment), 6; in series [2] (setting [10]), 0. Besides, the “No. of subjects … (no detectable alopecia)” value is given as 6 in series [2] (tellurate 0.5 mg/Kg IP every other day ×7 days with arabinoside-C 25 mg/kg i.p., second experiment) and 0 in series [2] (setting [11]). Also, the “No. of subjects with alopecia grade 2+ (moderately severe, hair loss >50%)” value is 1 in series [3] (setting [7]); 0 in series [2] (setting [8]); 1 in series [2] (setting [9]); 0 in series [2] (setting [10]); 3 in series [2] (setting [11]); 2 in series [2] (setting [12]). Further, the “number with alopecia score 0” value in series [4] is 122. The “number with alopecia score I (casual alopecia)” value in series [4] worked out at 26. Moreover, the “number with alopecia score II (>50% alopecia)” value in series [4] is reported as 40. Also, the “number with alopecia score III (<50% alopecia)” value in series [4] stood at 12. The “number with alopecia score IV (total alopecia)” value in series [4] stood at 0. In addition, the “percentage with alopecia score 0” value in series [4] was 61.00%. In addition, in series [4], the “percentage with alopecia score I (casual alopecia)” value worked out at 13.00%. For the same molecule, the “percentage with alopecia score II (>50% alopecia)” value in series [4] is on record as 20.00%. Moreover, the “percentage with alopecia score III (<50% alopecia)” value in series [4] was 6.00%. Also, the “percentage with alopecia score IV (total alopecia)” value in series [4] is 0.00%. The “Grade of Alopecia” value is recorded as 3 (3 = more than 50% alopecia) in series [1] (10 ug/rat topical in glycerin once daily 7 days); 1 (1 = less than 20% alopecia) in series [1] (20 ug/rat topical in glycerin once daily 7 days); 0 in series [1] (50 ug/rat topical in glycerin once daily 7 days); 2 (2 = less than 50% alopecia) in series [1] (100 ug/rat topical in glycerin once daily 7 days); 3 (3 = more than 50% alopecia) in series [1] (200 ug/rat topical in glycerin once daily 7 days). The “rats that showed 0% alopecia” value in series [1] (50 ug topical, arabinoside-C 25 mg/kg) was 100%. Besides, in series [1] (10-200 ug/rat topical, arabinoside-C 25 mg/kg), the “dose response of topical effect on alopecia” value is given as “A dose response effect was observed”. The “effect on alopecia of a tellurate regimen” value in series [2] (given daily) is listed as “almost completely avoids alopecia”; in series [2] (given every other day) it was “provides some protection from alopecia”. The “histological examination of the skin” value in series [2] (subjects treated with arabinoside-C and tellurate) is “no hair loss or reduced hair loss”. Also, the “No. of subjects with alopecia grade 3+ (total or virtually total, hair loss >79%)” value was 0 in series [2] (setting [8]); 0 in series [2] (setting [9]); 0 in series [2] (setting [10]); 0 in series [2] (setting [11]); 3 in series [2] (setting [12]).

As to `O=P1(N(CCCl)CCCl)NCCCO1` (centres unmarked) [cyclophosphamide, reference compound], in series [3] (setting [13]), the “No. of subjects … (no detectable alopecia)” value is given as 1; the “No. of subjects … (mild, hair loss <50%)” value was 3 and 2. Also, the “No. of subjects … (mild, hair loss <50%)” value in series [3] (cyclophosphamide 20 mg/kg i.p. ×7 days alone, listed as cyclosphosphamide) came to 10.
